{"source": "the NIST ThermoML archive (doi:10.1021/je049907t)", "key": {"[1]": {"conditions": "for Normal melting temperature: Crystal 1, visual observation"}, "[2]": {"test": "Molar enthalpy of transition or fusion", "conditions": "Crystal"}}, "note": "± gives the expanded uncertainty stated by the source."}
{"smiles": "Cc1nc2ccccc2[nH]1", "note": "[2-methylbenzimidazole]", "values": [{"measurement": "Normal melting temperature", "setting": "[1]", "value": "178.28 ± 0.5", "unit": "°C"}]}
{"smiles": "c1ccc2[nH]cnc2c1", "note": "[benzimidazole]", "values": [{"measurement": "Normal melting temperature", "setting": "[1]", "value": "172.36 ± 0.5", "unit": "°C"}]}
{"smiles": "c1ccc(-c2nc[nH]c2-c2ccccc2)cc1", "note": "[4,5-diphenylimidazole]", "values": [{"measurement": "Triple point temperature", "setting": "[1]; Crystal", "value": "504.84 ± 1", "unit": "K"}, {"measurement": "Molar enthalpy of transition or fusion", "setting": "[2]", "value": "8.17 ± 0.454", "unit": "kcal/mol"}]}
{"smiles": "Cc1ncc[nH]1", "note": "[2-methylimidazole]", "values": [{"measurement": "Normal melting temperature", "setting": "[1]", "value": "146 ± 0.5", "unit": "°C"}]}
